From patent US10525054B2 (dated 2020)
Read-outs that look alike come from different tables or passages of the source.

What was measured:
[1] = tested on: cocaine-trained rats; settings: cited from earlier work
[2] = tested on: squirrel monkeys; settings: cited from earlier work
[3] = tested on: acetic acid induced writhing in mice; experiment: Acetic acid writhing assay in mice; type: in vivo; settings: for Mean Number of writhes: in combination with Diclofenac (3 mg/kg), 30 minutes prior to i.p. 0.5% acetic acid, counted 0-20 minutes
[4] = tested on: cocaine-trained rats; settings: doses of up to 3.2 mg/kg/injection; three-day substitution tests and progressive ratio tests; cited from earlier work

COc1ccc2c3c1O[C@H]1C(=O)CC[C@@]4(O)[C@@H](C2)N(C)CC[C@]314 [oxycodone]
mean progressive ratio breakpoint ([1]; 0.01 mg/kg/infusion): 56
mean progressive ratio breakpoint ([1]; 0.032 mg/kg/infusion): 79
injection lever responses (% ILR) ([2]; 0.1 mg/kg/injection IV): 100%

COc1ccc2c3c1O[C@H]1C(=O)CC[C@H]4[C@@H](C2)N(C)CC[C@]314 [hydrocodone]
progressive ratio breakpoint ([1]; 0.18 mg/kg/infusion): 114

COC(=O)[C@H]1[C@@H](OC(=O)c2ccccc2)C[C@@H]2CC[C@H]1N2C [cocaine]
progressive ratio breakpoint ([1]; maintenance dose 0.56 mg/kg/infusion): 128 responses

COCCOCCOCCOCCOCCO[C@H]1CC[C@@]2(O)[C@H]3Cc4ccc(OC)c5c4[C@@]2(CCN3C)[C@H]1O5 [α-6-mPEG5-O-hydroxycodone]
reduction of writhings, combination versus each compound individually (FIG. 2) ([3]; combination with diclofenac (3 mg/kg)): measured reduction of writhings that is greater than the number of writhings when each compound is individually administered
Mean Number of writhes ([3]; dose 5 mg/kg oral): 7.2
Mean Number of writhes ([3]; dose 10 mg/kg oral): 1.4

CN1CC[C@]23c4c5ccc(O)c4O[C@H]2[C@@H](O)C=C[C@H]3[C@H]1C5 [morphine, reference compound]
injection lever responses (% ILR) ([2]; 0.03 mg/kg/injection IV): 100%

COCCOCCOCCOCCO[C@H]1CC[C@@]2(O)[C@H]3Cc4ccc(OC)c5c4[C@@]2(CCN3C)[C@H]1O5 [α-6-mPEG4-O-hydroxycodone]
Mean Number of writhes ([3]; dose 5 mg/kg oral): 13
Mean Number of writhes ([3]; dose 10 mg/kg oral): 4.8

COCCOCCOCCOCCOCCOCCO[C@H]1CC[C@@]2(O)[C@H]3Cc4ccc(OC)c5c4[C@@]2(CCN3C)[C@H]1O5 [α-6-mPEG6-O-hydroxycodone]
Mean Number of writhes ([3]; dose 5 mg/kg oral): 6.2
Mean Number of writhes ([3]; dose 10 mg/kg oral): 4
reinforcing properties in progressive ratio tests ([1]; behaved like saline): no reinforcing properties
progressive ratio breakpoints compared with saline ([1]; five out of six tested doses): lower than that produced by saline
injection lever responses (% ILR) ([2]; 0.32 mg/kg IV): 22%
injection lever responses (% ILR) ([2]; 1.0 mg/kg IV): 39%
injection lever responses (% ILR) ([2]; 3.2 mg/kg IV): 50%
exclusive injection lever responding, number of subjects ([2]; highest dose tested, 3.2 mg/kg/injection, 3-4 subjects): only two subjects
reinforcing strength ([2]; highest doses tested of 3.2 mg/kg/injection): marked reduction in reinforcing strength
potency in self-administration relative to oxycodone and morphine ([2]; monkeys): significantly lower potency than oxycodone and morphine
behavioral evidence of positive reinforcement [4]: no behavioral evidence of positive reinforcement
